From US20080004290A1, “Anti-Cancer Agents” (THE UNIVERSITY OF QUEENSLAND, priority 2003, published 2008)
Read-outs that look alike come from different tables or passages of the source.

Tests used:
Format in all cases: cell-based, human
[1] = system: MM96L melanoma cells; experiment: Cell survival assay (clonogenic survival, SRB); details: for IC50: Homo sapiens, MM96L; for SI (Selectivity Index = IC50 (NFF)/IC50 (MM96L)): NFF vs MM96L; for Selectivity Index MM96L: Table 13, S enantiomer, IC50(NFF)/IC50(cancer cell line)
Summary of the method: (§1)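 Cells (5×10^3/well, RPMI 1640 with 10% FCS) treated 24 h with compound at 0.01-10 μg/mL, then washed and grown 72 h drug-free at 37 °C, 5% CO2. Survival read by SRB staining after methylated-spirit fixation, absorbance 564 nm.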

[2] = system: HOP62 cells; experiment: Cell survival assay (SRB); details: for IC50: Homo sapiens, HOP-62, HOP62 (lung), read-out: Cytoselectivities (nM) HOP62; for Selectivity Index HOP62: Table 13, S enantiomer, IC50(NFF)/IC50(cancer cell line)
Experimental: (§2) Cell Lines and Culture Medium. All cell lines used in this study have been described previously (Parsons et al., 1986; Todaro et al., 1980; Glenn et al., 2004). All cell lines were cultured in 10% heat-inactivated foetal calf serum (CSL, Australia) in RPMI 1640 medium supplemented with 100 U/mL penicillin, 100 μg/mL streptomycin, and 3 mM HEPES at 5% CO2, 99% humidity at 37° C. Primary human fibroblasts were obtained from neonatal foreskins and cultured in the above medium. Routine mycoplasma tests were performed using Hoechst stain^i and were always negative.
(§3) Cell Survival Assay. Cells were plated into 96-well microtitre plates at 5×10^3 cells/well, and allowed to adhere overnight. Test compounds were added to culture medium at the indicated concentrations, and plates incubated in the above conditions for 24 hours. Following this incubation period, compounds and media were removed, and replaced with fresh culture medium. Cells were then grown for a further 72 hours before assay using sulforhodamine B (SRB; Sigma, St. Louis, Mo.) as previously described. Briefly, the culture medium was removed from the 96-well microtitre plates and the plates washed twice with phosphate buffered saline (PBS), before the cells were fixed with methylated spirits for 15 minutes. The plates were then rinsed with tap water and the fixed cells stained with 50 μL/well of SRB solution (0.4% sulforhodamine B (w/v) in 1% (v/v) acetic acid) over a period of 1 hour. The SRB solution was then removed from the wells and the plates rapidly washed two times with 1% (v/v) acetic acid. Protein bound dye was then solubilised with the addition of 100 μL of 10 mM unbuffered Tris, and incubated for 15 min at 25° C. Plates were then read at 564 nm on a VERSA max tunable microplate reader (Molecular Devices, Sunnyvale, Calif.).

[3] = system: SK-MEL-5 cells; experiment: Cell survival assay (SRB); details: for IC50: Homo sapiens, SK-MEL-5, read-out: Cytoselectivities (nM) SK-MEL-5; for Selectivity Index SK-MEL-5: Table 13, S enantiomer, IC50(NFF)/IC50(cancer cell line)
Experimental: as §2, §3

[4] = system: PC-3 cells; experiment: Cell survival assay (SRB); details: for IC50: Homo sapiens, PC-3, read-out: Cytoselectivities (nM) PC-3; for Selectivity Index PC-3: Table 13, S enantiomer, IC50(NFF)/IC50(cancer cell line)
Experimental: as §2, §3

[5] = system: A549 cells; experiment: Cell survival assay (SRB); details: for IC50: Homo sapiens, A549 (lung), read-out: Cytoselectivities (nM) A549; for Selectivity Index A549: Table 13, S enantiomer, IC50(NFF)/IC50(cancer cell line)
Experimental: as §2, §3

[6] = system: T-47D cells; experiment: Cell survival assay (SRB); details: for IC50: Homo sapiens, T47D, read-out: Cytoselectivities (nM) T-47D; for Selectivity Index T-47D: Table 13, S enantiomer, IC50(NFF)/IC50(cancer cell line)
Experimental: as §2, §3

[7] = system: Col208 cells; experiment: Cell survival assay (SRB); details: for IC50: Homo sapiens, Col208 (colon), read-out: Cytoselectivities (nM) Col208; for Selectivity Index Col208: Table 13, S enantiomer, IC50(NFF)/IC50(cancer cell line)
Experimental: as §2, §3

[8] = system: HT29 cells; experiment: Cell survival assay (SRB); details: for IC50: Homo sapiens, HT-29, HT29 (colon), read-out: Cytoselectivities (nM) HT29; for Selectivity Index HT29: Table 13, S enantiomer, IC50(NFF)/IC50(cancer cell line)
Experimental: as §2, §3

[9] = system: H520 cells; experiment: Cell survival assay (SRB); details: for IC50: Homo sapiens, NCI-H520, read-out: Cytoselectivities (nM) H520; for Selectivity Index H520: Table 13, S enantiomer, IC50(NFF)/IC50(cancer cell line)
Experimental: as §2, §3

[10] = system: JAM ovarian cancer cells; experiment: Cell survival assay (SRB); details: for IC50: Homo sapiens, read-out: Cytoselectivities (nM) JAM; for Selectivity Index JAM: Table 13, S enantiomer, IC50(NFF)/IC50(cancer cell line)
Experimental: as §2, §3
(§4) For comparison their results are also shown for MM96L and NFF cell lines.

[11] = system: MCF-7 breast cancer cells; experiment: Cell survival assay (SRB); details: for IC50: Homo sapiens, MCF7, MCF-7 (breast), read-out: Cytoselectivities (nM) MCF-7; for Selectivity Index MCF-7: Table 13, S enantiomer, IC50(NFF)/IC50(cancer cell line)
Experimental: as §2, §3, §4

[12] = system: CI-80-13S ovarian cancer cells; experiment: Cell survival assay (SRB); details: for IC50: Homo sapiens, read-out: Cytoselectivities (nM) CI80-13S; for Selectivity Index CI80-13S: Table 13, S enantiomer, IC50(NFF)/IC50(cancer cell line)
Experimental: as §2, §3, §4

[13] = system: SkMel28 melanoma cells; experiment: Cell survival assay (SRB); details: for IC50: Homo sapiens, SK-MEL-28 (melanoma), read-out: Cytoselectivities (nM) SK-MEL-28; for Selectivity Index SK-MEL-28: Table 13, S enantiomer, IC50(NFF)/IC50(cancer cell line)
Experimental: as §2, §3, §4

[14] = system: DU145 prostate cancer cells; experiment: Cell survival assay (SRB); details: for IC50: Homo sapiens, DU-145, DU145 (prostate), read-out: Cytoselectivities (nM) DU145; for Selectivity Index DU145: Table 13, S enantiomer, IC50(NFF)/IC50(cancer cell line)
Experimental: as §2, §3, §4

[15] = system: NFF, neonatal foreskin fibroblasts; experiment: Cell survival assay (clonogenic survival, SRB), normal cells; details: Homo sapiens, Fibroblast, NFF normal fibroblasts; 24 h with compound, further 72 h growth, SRB; read-out: IC50 (uM) NFF
Summary of the method: as §1

[16] = MM96L melanoma, 24 h with compound, further 72 h growth, SRB, read-out: IC50 (uM) MM96L
[17] = Table 12, read-out: Cytoselectivities (nM) MM96L

Structure (SMILES): O=C(CCCCC[C@H](NC(=O)OCc1ccccc1)C(=O)Nc1cccc2cccnc12)NO [Example 148]
- IC50 [1, 16]: 0.043 µM
- IC50 [1, 17]: 0.108 µM
- IC50 ([1]; most preferred compounds, exemplary examples, read-out: potency of IC50 against the MM96 melanoma cells): ≤ 0.5 µM
- SI (Selectivity Index = IC50 (NFF)/IC50 (MM96L)) [1]: 10.5
- Selectivity Index MM96L [1]: 4
- IC50 [2]: 226 nM
- Selectivity Index HOP62 [2]: 2
- IC50 [3]: 70 nM
- Selectivity Index SK-MEL-5 [3]: 6
- IC50 [4]: 528 nM
- Selectivity Index PC-3 [4]: 0.9
- IC50 [5]: 248 nM
- Selectivity Index A549 [5]: 2
- IC50 [6]: 93 nM
- Selectivity Index T-47D [6]: 5
- IC50 [7]: 122 nM
- Selectivity Index Col208 [7]: 4
- IC50 [8]: 334 nM
- Selectivity Index HT29 [8]: 1.4
- IC50 [9]: 118 nM
- Selectivity Index H520 [9]: 4
- IC50 [10]: 194 nM
- Selectivity Index JAM [10]: 2
- IC50 [11]: 122 nM
- Selectivity Index MCF-7 [11]: 4
- IC50 [12]: 124 nM
- Selectivity Index CI80-13S [12]: 4
- IC50 [13]: 146 nM
- Selectivity Index SK-MEL-28 [13]: 3
- IC50 [14]: 131 nM
- Selectivity Index DU145 [14]: 3
- IC50 [15]: 0.452 µM

Structure (SMILES): CC(C)COC(=O)N[C@@H](CCCCCC(=O)NO)C(=O)Nc1cccc2cccnc12 [Example 149]
- IC50 [1, 16]: 0.023 µM
- IC50 [1, 17]: 0.116 µM
- SI (Selectivity Index = IC50 (NFF)/IC50 (MM96L)) [1]: 3.5
- Selectivity Index MM96L [1]: 0.7
- IC50 [2]: 267 nM
- Selectivity Index HOP62 [2]: 0.3
- IC50 [3]: 100 nM
- Selectivity Index SK-MEL-5 [3]: 0.8
- IC50 [4]: 651 nM
- Selectivity Index PC-3 [4]: 0.1
- IC50 [5]: 291 nM
- Selectivity Index A549 [5]: 0.3
- IC50 [6]: 198 nM
- Selectivity Index T-47D [6]: 0.4
- IC50 [7]: 395 nM
- Selectivity Index Col208 [7]: 0.2
- IC50 [8]: 360 nM
- Selectivity Index HT29 [8]: 0.2
- IC50 [9]: 129 nM
- Selectivity Index H520 [9]: 0.6
- IC50 [10]: 221 nM
- Selectivity Index JAM [10]: 0.4
- IC50 [11]: 138 nM
- Selectivity Index MCF-7 [11]: 0.6
- IC50 [12]: 149 nM
- Selectivity Index CI80-13S [12]: 0.5
- IC50 [13]: 170 nM
- Selectivity Index SK-MEL-28 [13]: 0.5
- IC50 [14]: 130 nM
- Selectivity Index DU145 [14]: 0.6
- IC50 [15]: 0.081 µM

Structure (SMILES): O=C(CCCCC[C@H](NC(=O)c1ccc(Br)cc1)C(=O)Nc1ccc(-c2ccccc2)cc1)NO [Example 161]
- IC50 [1, 16]: 0.074 µM
- IC50 [1, 17]: 0.121 µM
- SI (Selectivity Index = IC50 (NFF)/IC50 (MM96L)) [1]: 2.5
- Selectivity Index MM96L [1]: 1.5
- IC50 [2]: 261 nM
- Selectivity Index HOP62 [2]: 0.7
- IC50 [3]: 102 nM
- Selectivity Index SK-MEL-5 [3]: 1.8
- IC50 [4]: 531 nM
- Selectivity Index PC-3 [4]: 0.3
- IC50 [5]: 335 nM
- Selectivity Index A549 [5]: 0.6
- IC50 [6]: 197 nM
- Selectivity Index T-47D [6]: 0.9
- IC50 [7]: 272 nM
- Selectivity Index Col208 [7]: 0.6
- IC50 [8]: 307 nM
- Selectivity Index HT29 [8]: 0.6
- IC50 [9]: 117 nM
- Selectivity Index H520 [9]: 1.6
- IC50 [10]: 182 nM
- Selectivity Index JAM [10]: 1.0
- IC50 [11]: 149 nM
- Selectivity Index MCF-7 [11]: 1.2
- IC50 [12]: 158 nM
- Selectivity Index CI80-13S [12]: 1.2
- IC50 [13]: 168 nM
- Selectivity Index SK-MEL-28 [13]: 1.1
- IC50 [14]: 149 nM
- Selectivity Index DU145 [14]: 1.2
- IC50 [15]: 0.185 µM
